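Growth conditions: 96-well plates. Treatment: test compound, 48 hours, 5 concentrations. Analysis: linear interpolation between bracketing concentrations; unreached endpoints set to highest concentration. The concentration for full growth arrest is given as TGI.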
What was measured:
Assay in all cases: inhibition of tumour cell growth, NCI panel, 48 h
NCI/ADR-RES ovarian = tested on: NCI/ADR-RES ovarian
SF-295 CNS = tested on: SF-295 CNS
786-0 renal = tested on: 786-0 renal
M14 melanoma = tested on: M14 melanoma
SNB-75 CNS = tested on: SNB-75 CNS
A549 NSCLC = tested on: A549 NSCLC
OVCAR-8 ovarian = tested on: OVCAR-8 ovarian
MALME-3M melanoma = tested on: MALME-3M melanoma
ACHN renal = tested on: ACHN renal
OVCAR-3 ovarian = tested on: OVCAR-3 ovarian
OVCAR-4 ovarian = tested on: OVCAR-4 ovarian
TK-10 renal = tested on: TK-10 renal
MDA-MB-231 breast = tested on: MDA-MB-231 breast
UO-31 renal = tested on: UO-31 renal
NCI-H522 lung = tested on: NCI-H522 lung
MDA-N = tested on: MDA-N
SN12C renal = tested on: SN12C renal
BT-549 breast = tested on: BT-549 breast
SK-MEL-5 melanoma = tested on: SK-MEL-5 melanoma
UACC-62 melanoma = tested on: UACC-62 melanoma
U251 CNS = tested on: U251 CNS
UACC-257 melanoma = tested on: UACC-257 melanoma
K-562 leukemia = tested on: K-562 leukemia
SR leukemia = tested on: SR leukemia
EKVX NSCLC = tested on: EKVX NSCLC
DU-145 prostate = tested on: DU-145 prostate
MDA-MB-435 = tested on: MDA-MB-435
MCF7 breast = tested on: MCF7 breast
SF-539 CNS = tested on: SF-539 CNS
SNB-19 CNS = tested on: SNB-19 CNS
HOP-92 NSCLC = tested on: HOP-92 NSCLC
HOP-62 NSCLC = tested on: HOP-62 NSCLC
NCI-H460 lung = tested on: NCI-H460 lung
NCI-H226 lung = tested on: NCI-H226 lung
HL-60(TB) leukemia = tested on: HL-60(TB) leukemia
IGROV1 ovarian = tested on: IGROV1 ovarian
OVCAR-5 ovarian = tested on: OVCAR-5 ovarian
A498 renal = tested on: A498 renal
SF-268 CNS = tested on: SF-268 CNS
SW-620 colon = tested on: SW-620 colon
CCRF-CEM leukemia = tested on: CCRF-CEM leukemia
LOX IMVI melanoma = tested on: LOX IMVI melanoma
T-47D breast = tested on: T-47D breast
RPMI-8226 leukemia = tested on: RPMI-8226 leukemia
HS 578T breast = tested on: HS 578T breast
COLO 205 colon = tested on: COLO 205 colon
PC-3 prostate = tested on: PC-3 prostate
SK-MEL-28 melanoma = tested on: SK-MEL-28 melanoma
SK-OV-3 ovarian = tested on: SK-OV-3 ovarian
NCI-H23 lung = tested on: NCI-H23 lung
MOLT-4 leukemia = tested on: MOLT-4 leukemia
KM12 colon = tested on: KM12 colon
HCT-15 colon = tested on: HCT-15 colon
CAKI-1 renal = tested on: CAKI-1 renal
HCT-116 colon = tested on: HCT-116 colon

Measured: TGI

CCCCNC(=S)N/N=C/c1cccc(C)n1
55.1 µM: MOLT-4 leukemia
55.2 µM: HOP-62 NSCLC
41.8 µM: NCI-H522 lung
68.3 µM: UACC-62 melanoma
48.6 µM: M14 melanoma
40.2 µM: CCRF-CEM leukemia
38.8 µM: HCT-116 colon
62.2 µM: NCI-H226 lung
78.5 µM: UO-31 renal
87.8 µM: CAKI-1 renal
68 µM: ACHN renal
96.8 µM: SF-539 CNS
86.7 µM: HOP-92 NSCLC
97.6 µM: TK-10 renal
44.5 µM: K-562 leukemia
> 100 µM: all other assays above
